According to US20230053297A1, “COMPOSITIONS AND METHODS TO INCREASE SERUM DILEUCINE LEVELS” (Ingenious Ingredients, LP, priority 2021, published 2023):

Assay: Plasma dileucine pharmacokinetics after a single dose of leucine or whey protein isolate in healthy men
Conditions: male, human, in vivo
Protocol: Five healthy men between the ages of 18-50 years of age were recruited to participate in this study. Prior to beginning the study, all participants signed an informed consent document and complete a healthy history questionnaire to determine study eligibility.
All participants reported to the laboratory between 06:00-10:00 hours and observing an 8-10 hour fast. For the two days prior to testing, study participants were given a standardized meal plan to help control for changes in dietary intake prior to testing. Upon arrival, participants heart rate, blood pressure, body mass, height and body composition were measured using DEXA. Prior to body composition assessment, study participants were tested for appropriate hydration status. Using standard multiple sample phlebotomy approaches, approximately 10 mL of venous blood was collected from a forearm vein prior to being administrated a single dose of either leucine (2-gram dose) or whey protein isolate (25-gram dose). In a time course fashion, subsequent venous blood samples were collected 30, 60, 90, 120 and 240 minutes after ingestion of their assigned supplement. Participants were provided 250 mL of cold water to ingest after each blood collection. Study participants returned approximately 3-7 days after completion of the previous study visit to complete an identical testing session as previously described while receiving the alternative treatment.

CC(C)C[C@H](N)C(=O)O [leucine]
AUC Dileucine: 37.1 ± 20.2 µmol·h/L | Cmax: 610 ± 430 nM | increase of plasma dileucine levels compared to whey protein (as AUC): 40.5%
